This note sets out measurements from patent publication US10464941B2, “Therapeutic compounds” (REGENTS OF THE UNIVERSITY OF MINNESOTA, priority 2015, dated 2019).

The test system of assay [1] is CFA-induced mechanical hyperalgesia mouse model. As to the kind of experiment: Complete Freund's Adjuvant (CFA) mechanical hyperalgesia, electronic von Frey. Format: in vivo, mice. The note with it: i.t. The protocol:
Before injection of CFA baseline withdrawal thresholds (g) were obtained from a mechanical stimulation using an electronic von Frey anesthesiometer (IITC Life Sciences, Woodland Hills, USA) by applying an accurate force on both left and right hind paw. (2,3) The left hindpaws were then injected (intraplantar) with a 50% solution of CFA (10 μg, Sigma-Aldrich) in water while the mice are under isoflurane anesthesia (10). Twenty-four hours later the withdrawal threshold (g) was again measured prior to and after the test compound i.t. at 10, 20, 30 and 60 minutes to determine the peak time and subsequent ED50. % MPE was calculated ((Time-point withdrawal threshold with drug−CFA withdrawal threshold)/(Day 0 withdrawal threshold−CFA withdrawal threshold))*100 (Wade, C. L., et al., PLoS One 2013, 8, e79239/1-e79239/11, 11 pp; Martinov, T., et al., J Vis Exp 2013, e51212; Sorge, R. E., et al., J. Neurosci. 2011, 31, 15450-15454).

For another assay, the system named is WDR neuron. Nature of the assay: Extracellular recordings from dorsal horn neurons, von Frey stimulation. The class given is in vivo, mice. The note with it: hind paw, 5 sec, compared with control and vehicle. The protocol: Mice were anesthetized with isoflurane while maintaining core temperature at 37° C. A laminectomy exposed the lumbar spinal cord then mice were secured in a spinal frame. Extracellular recordings from dorsal horn neurons with receptive fields located on the plantar surface of the hind paw were obtained using glass microelectrodes lowered into the spinal cord.
Receptive fields (RFs) of dorsal horn neurons were identified by stroking the skin and applying mild pressure. Neurons were classified functionally as low threshold (LT), wide dynamic range (WDR) and high threshold (HT) using mechanical stimulation of graded intensities. RF areas were mapped using von Frey filaments. The discharge rate of spontaneous activity was recorded for 3 minutes. Mechanical response thresholds were determined and an increasing series of von Frey filaments were applied, each for 5 sec. Action potentials and the time of stimulus application were stored on a computer. Comparisons of discharge rates were made between vehicle and MCC22.

Structures are written as SMILES.

Turning to `Cc1ccc(N(CCCN2CCC(Cc3ccc(C(N)=O)cc3)CC2)C(=O)C2CCN(C(=O)COCC(=O)NCCCCCCCCCCNC(=O)COCC(=O)N[C@H]3CC[C@@]4(O)C5Cc6ccc(O)c7c6[C@@]4(CCN5C)[C@H]3O7)CC2)cc1Cl` [Compound 3e, N-(3-(4-(4-carbamoylbenzyl)piperidin-1-yl)propyl)-N-(3-chloro-4-methylphenyl)-1-(22-(((4aS,7S,7aR,12bS)-4a,9-dihydroxy-3-methyl-2,3,4,4a,5,6,7,7a-octahydro-1H-4,12-methanobenzofuro[3,2-e]isoquinolin-7-yl)amino)-5,18,22-trioxo-3,20-dioxa-6,17-diazadocosan-1-oyl)piperidine-4-carboxamide], the “ED50 values (95% CI) CFA (mechanical)” value in assay [1] came to 0.019 pmol/mouse. In addition, the “responses of WDR neuron evoked by 1.0 g (9.3 mN) von Frey filament” value in the assay with WDR neuron is reported as “significantly reduced responses”.
